Measurements published in patent publication US20140322360A1, “METHOD AND DEVICE FOR ATTRACTING BLOOD-SUCKING ARTHROPODS” (BIOGENTS AG, priority 2011, published 2014).

Tested on: female mosquitoes
Experiment: Y-olfactometer test of attractiveness (activation and orientation of mosquitoes)
Assay type: in vivo
Settings: A0, B0, C0 together, regardless of the CO2 concentration used
Description: Olfactometer tests are particularly useful during product development. They are used to filter out the most promising candidate substances from a number of interesting attractants or repellents quickly and cost-effectively. In particular, the olfactometer 60 has the form of a “Y”. A cage with piercing joyful female mosquitoes is connected to the lower end 62 of the “Y” of the air conditioned tubular system of the olfactometer 60. The two arms 64 and 65 of the “Y” each include the control chamber 70 and test chamber 72. Air L flows through both chambers 70, 72 and is then combined in the base leg 66 of the “Y”. During the phase when the stimulus is given, the test mosquitoes can fly into the direction of movement B into the olfactometer 60 and choose between the test chamber 72 with air containing the stimulus and the control chamber 70 containing clean air. Air L flows through the olfactometer 60 in the direction opposite to the direction of movement B of the mosquitoes, the air L being entrained with the attractant from the test chamber 72. Firstly, the activation or mobilization of the test mosquitoes is determined. This refers to a non-directional fly away of the mosquitoes when a stimulus is given. […] Then the orientation is further determined by counting the number of mosquitoes in the test chamber 72. […]

Question: For `O=C=O` [CO2], which “directional orientation Y” value is on record?
Answer: Its value is “about 50%”.

Question: What about the “undirected activation X” value of the same compound?
Answer: The value was “about 83%”.
